From ChEMBL document CHEMBL3885881, “DrugMatrix”

Species: Rattus norvegicus
Test: DrugMatrix - Regimen: Daily Repeat
Type: toxicity, organism-based, Sprague-Dawley
Set-up: regimen Daily Repeat, gender Male, age 6-8 weeks
Settings: in vivo, po, route oral GAVAGE, vehicle 100 % WATER; for ABSOLUTE BASOPHIL / ABSOLUTE EOSINOPHIL / ABSOLUTE LYMPHOCYTE / ABSOLUTE MONOCYTE / ABSOLUTE SEGMENTED NEUTROPHIL / BASOPHIL / EOSINOPHIL / ERYTHROCYTE COUNT / HEMATOCRIT / HEMOGLOBIN / LEUKOCYTE COUNT / LYMPHOCYTE / MEAN CORPUSCULAR HEMOGLOBIN / MEAN CORPUSCULAR HEMOGLOBIN CONCENTRATION / MEAN CORPUSCULAR VOLUME / MONOCYTE / NEUTROPHIL / NUCLEATED RED BLOOD CELLS / PLATELET COUNT: tissue Blood; for ALANINE AMINOTRANSFERASE / ALBUMIN / ALKALINE PHOSPHATASE / ASPARTATE AMINOTRANSFERASE / BLOOD UREA NITROGEN / CARBON DIOXIDE / CHLORIDE / CHOLESTEROL / CREATINE PHOSPHOKINASE / CREATININE / GLUCOSE / LACTATE DEHYDROGENASE / LIPASE / PHOSPHORUS / POTASSIUM / SODIUM / TOTAL BILIRUBIN / TOTAL PROTEIN / URIC ACID: tissue Plasma
[1] = 0 mg/kg, 72 h, dose level Control, time 3 day
[2] = 0 mg/kg, 120 h, dose level Control, time 5 day
[3] = 15 mg/kg, 72 h, dose level Low, time 3 day
[4] = 15 mg/kg, 120 h, dose level Low, time 5 day

For `COC(=O)C1=C(C)NC(C)=C(C(=O)OCC(C)C)C1c1ccccc1[N+](=O)[O-]` (configuration not stated) [NISOLDIPINE], the “ABSOLUTE BASOPHIL” value [1] was 0 CELLS/uL, the “ABSOLUTE EOSINOPHIL” value [1] was 0 CELLS/uL and the “ABSOLUTE LYMPHOCYTE” value [1] was 7802.17 CELLS/uL. The “ABSOLUTE MONOCYTE” value [1] was 13.5 CELLS/uL, the “ABSOLUTE SEGMENTED NEUTROPHIL” value [1] was 617.67 CELLS/uL and the BASOPHIL [1] was 0%. The EOSINOPHIL [1] was 0%, the “ERYTHROCYTE COUNT” value [1] was 5.35 x10E6/uL and the HEMATOCRIT [1] was 33.02%. For the same compound, the HEMOGLOBIN [1] was 12.88 G/DL, the “LEUKOCYTE COUNT” value [1] was 8.43 x10E3/uL and the LYMPHOCYTE [1] was 92.67%. For the same compound, the “MEAN CORPUSCULAR HEMOGLOBIN” value [1] was 24.12 pg, the “MEAN CORPUSCULAR HEMOGLOBIN CONCENTRATION” value [1] was 39.03 G/DL and the “MEAN CORPUSCULAR VOLUME” value [1] was 61.8 fL. For the same compound, the MONOCYTE [1] was 0.17%, the NEUTROPHIL [1] was 7.17% and the “NUCLEATED RED BLOOD CELLS” value [1] was 0 /100WBC. The “PLATELET COUNT” value [1] was 1124.83 x10E3/uL, the “ALANINE AMINOTRANSFERASE” value [1] was 54.17 u/L and the ALBUMIN [1] was 4.07 G/DL. For the same compound, the “ALKALINE PHOSPHATASE” value [1] was 383.83 u/L, the “ASPARTATE AMINOTRANSFERASE” value [1] was 82.17 u/L and the “BLOOD UREA NITROGEN” value [1] was 13.67 mg/dL. For the same compound, the “CARBON DIOXIDE” value [1] was 31 mmol/L, the CHLORIDE [1] was 100.83 MEQ/L and the CHOLESTEROL [1] was 65.17 mg/dL. For the same compound, the “CREATINE PHOSPHOKINASE” value [1] was 228.33 u/L, the CREATININE [1] was 0.12 mg/dL and the GLUCOSE [1] was 148 mg/dL. The “LACTATE DEHYDROGENASE” value [1] was 97.83 u/L, the LIPASE [1] was 9.17 u/L and the PHOSPHORUS [1] was 9.75 mg/dL. For the same compound, the POTASSIUM [1] was 5.85 MEQ/L, the SODIUM [1] was 147.02 MEQ/L and the “TOTAL BILIRUBIN” value [1] was 0.18 mg/dL. For the same compound, the “TOTAL PROTEIN” value [1] was 6.1 G/DL, the “URIC ACID” value [1] was 0.5 mg/dL and the “ABSOLUTE BASOPHIL” value [2] was 0 CELLS/uL. The “ABSOLUTE EOSINOPHIL” value [2] was 0 CELLS/uL, the “ABSOLUTE LYMPHOCYTE” value [2] was 10538 CELLS/uL and the “ABSOLUTE MONOCYTE” value [2] was 15.83 CELLS/uL. For the same compound, the “ABSOLUTE SEGMENTED NEUTROPHIL” value [2] was 762.83 CELLS/uL, the BASOPHIL [2] was 0% and the EOSINOPHIL [2] was 0%. The “ERYTHROCYTE COUNT” value [2] was 5.49 x10E6/uL, the HEMATOCRIT [2] was 34.63% and the HEMOGLOBIN [2] was 13.72 G/DL. For the same compound, the “LEUKOCYTE COUNT” value [2] was 11.32 x10E3/uL, the LYMPHOCYTE [2] was 92.67% and the “MEAN CORPUSCULAR HEMOGLOBIN” value [2] was 24.97 pg. The “MEAN CORPUSCULAR HEMOGLOBIN CONCENTRATION” value [2] was 39.57 G/DL, the “MEAN CORPUSCULAR VOLUME” value [2] was 63.05 fL and the MONOCYTE [2] was 0.17%. The NEUTROPHIL [2] was 7.17%, the “NUCLEATED RED BLOOD CELLS” value [2] was 0.17 /100WBC and the “PLATELET COUNT” value [2] was 802 x10E3/uL. For the same compound, the “ALANINE AMINOTRANSFERASE” value [2] was 50.5 u/L, the ALBUMIN [2] was 4.07 G/DL and the “ALKALINE PHOSPHATASE” value [2] was 336.83 u/L. For the same compound, the “ASPARTATE AMINOTRANSFERASE” value [2] was 81 u/L, the “BLOOD UREA NITROGEN” value [2] was 14.17 mg/dL and the “CARBON DIOXIDE” value [2] was 32 mmol/L. The CHLORIDE [2] was 98.33 MEQ/L, the CHOLESTEROL [2] was 69.17 mg/dL and the “CREATINE PHOSPHOKINASE” value [2] was 253.33 u/L. The CREATININE [2] was 0.13 mg/dL, the GLUCOSE [2] was 153.67 mg/dL and the “LACTATE DEHYDROGENASE” value [2] was 157 u/L. The LIPASE [2] was 9 u/L, the PHOSPHORUS [2] was 10.78 mg/dL and the POTASSIUM [2] was 6.11 MEQ/L. For the same compound, the SODIUM [2] was 144.57 MEQ/L, the “TOTAL BILIRUBIN” value [2] was 0.15 mg/dL and the “TOTAL PROTEIN” value [2] was 6.05 G/DL. The “URIC ACID” value [2] was 0.73 mg/dL, the “ABSOLUTE BASOPHIL” value [3] was 0 CELLS/uL and the “ABSOLUTE EOSINOPHIL” value [3] was 0 CELLS/uL. The “ABSOLUTE LYMPHOCYTE” value [3] was 6241.33 CELLS/uL, the “ABSOLUTE MONOCYTE” value [3] was 67 CELLS/uL and the “ABSOLUTE SEGMENTED NEUTROPHIL” value [3] was 425 CELLS/uL. The BASOPHIL [3] was 0%, the EOSINOPHIL [3] was 0% and the “ERYTHROCYTE COUNT” value [3] was 5.19 x10E6/uL. For the same compound, the HEMATOCRIT [3] was 32.73%, the HEMOGLOBIN [3] was 12.7 G/DL and the “LEUKOCYTE COUNT” value [3] was 6.73 x10E3/uL. For the same compound, the LYMPHOCYTE [3] was 92.67%, the “MEAN CORPUSCULAR HEMOGLOBIN” value [3] was 24.5 pg and the “MEAN CORPUSCULAR HEMOGLOBIN CONCENTRATION” value [3] was 38.83 G/DL. For the same compound, the “MEAN CORPUSCULAR VOLUME” value [3] was 63.1 fL, the MONOCYTE [3] was 1% and the NEUTROPHIL [3] was 6.33%. For the same compound, the “NUCLEATED RED BLOOD CELLS” value [3] was 0 /100WBC, the “PLATELET COUNT” value [3] was 1002.33 x10E3/uL and the “ALANINE AMINOTRANSFERASE” value [3] was 56 u/L. The ALBUMIN [3] was 4.03 G/DL, the “ALKALINE PHOSPHATASE” value [3] was 297.33 u/L and the “ASPARTATE AMINOTRANSFERASE” value [3] was 80.67 u/L. For the same compound, the “BLOOD UREA NITROGEN” value [3] was 11.67 mg/dL, the “CARBON DIOXIDE” value [3] was 30.67 mmol/L and the CHLORIDE [3] was 100 MEQ/L. For the same compound, the CHOLESTEROL [3] was 89.67 mg/dL, the “CREATINE PHOSPHOKINASE” value [3] was 318.67 u/L and the CREATININE [3] was 0.11 mg/dL. The GLUCOSE [3] was 147.67 mg/dL, the “LACTATE DEHYDROGENASE” value [3] was 95.33 u/L and the LIPASE [3] was 13 u/L. The PHOSPHORUS [3] was 9.1 mg/dL, the POTASSIUM [3] was 5.7 MEQ/L and the SODIUM [3] was 145.35 MEQ/L. The “TOTAL BILIRUBIN” value [3] was 0.1 mg/dL, the “TOTAL PROTEIN” value [3] was 5.77 G/DL and the “URIC ACID” value [3] was 0.47 mg/dL. For the same compound, the “ABSOLUTE BASOPHIL” value [4] was 0 CELLS/uL, the “ABSOLUTE EOSINOPHIL” value [4] was 0 CELLS/uL and the “ABSOLUTE LYMPHOCYTE” value [4] was 9912 CELLS/uL. For the same compound, the “ABSOLUTE MONOCYTE” value [4] was 68 CELLS/uL, the “ABSOLUTE SEGMENTED NEUTROPHIL” value [4] was 453.33 CELLS/uL and the BASOPHIL [4] was 0%. For the same compound, the EOSINOPHIL [4] was 0%, the “ERYTHROCYTE COUNT” value [4] was 5.6 x10E6/uL and the HEMATOCRIT [4] was 34.7%. For the same compound, the HEMOGLOBIN [4] was 13.63 G/DL, the “LEUKOCYTE COUNT” value [4] was 10.43 x10E3/uL and the LYMPHOCYTE [4] was 95.33%. The “MEAN CORPUSCULAR HEMOGLOBIN” value [4] was 24.43 pg, the “MEAN CORPUSCULAR HEMOGLOBIN CONCENTRATION” value [4] was 39.3 G/DL and the “MEAN CORPUSCULAR VOLUME” value [4] was 62.07 fL. The MONOCYTE [4] was 0.67%, the NEUTROPHIL [4] was 4% and the “NUCLEATED RED BLOOD CELLS” value [4] was 0 /100WBC. For the same compound, the “PLATELET COUNT” value [4] was 1086 x10E3/uL, the “ALANINE AMINOTRANSFERASE” value [4] was 51 u/L and the ALBUMIN [4] was 4.13 G/DL. For the same compound, the “ALKALINE PHOSPHATASE” value [4] was 346 u/L, the “ASPARTATE AMINOTRANSFERASE” value [4] was 74 u/L and the “BLOOD UREA NITROGEN” value [4] was 13.67 mg/dL. For the same compound, the “CARBON DIOXIDE” value [4] was 36.67 mmol/L, the CHLORIDE [4] was 98.67 MEQ/L and the CHOLESTEROL [4] was 67.33 mg/dL. For the same compound, the “CREATINE PHOSPHOKINASE” value [4] was 223.67 u/L, the CREATININE [4] was 0.13 mg/dL and the GLUCOSE [4] was 139.67 mg/dL. The “LACTATE DEHYDROGENASE” value [4] was 96.33 u/L, the LIPASE [4] was 9 u/L and the PHOSPHORUS [4] was 9.5 mg/dL. For the same compound, the POTASSIUM [4] was 6.07 MEQ/L, the SODIUM [4] was 144.53 MEQ/L and the “TOTAL BILIRUBIN” value [4] was 0.17 mg/dL. For the same compound, the “TOTAL PROTEIN” value [4] was 6.17 G/DL and the “URIC ACID” value [4] was 0.67 mg/dL.
